Assay results taken from patent US10954276B2, “Enzyme-based protein separation and enrichment from soy meal, wheat meal, and other protein-rich materials derived from plant seeds, fruits and other biomass” (THE UNIVERSITY OF AKRON, priority 2012, dated 2021).
Values after ≈ are worked out from the molar mass of the structure shown.

What was measured:
[1] = system: bacterial growth present as spores in the soy flour; experiment: Sodium benzoate concentration to inhibit bacterial growth in soy flour hydrolysis; format: cell-based; conditions: soy flour enzyme hydrolysis
Procedure: Sodium benzoate (Na.B) was used to inhibit the bacterial growth present as spores in the soy flour that was being used for enzyme hydrolysis enrichment of the soy proteins. Different sodium benzoate concentrations were studied to determine the best concentration of sodium benzoate to inhibit bacterial growth. It was determined that Na.B level of 2 g/L was effective. The hydrolysate byproduct of enzyme hydrolysis of the soy flour having different sugars was intended to be used for arabitol production using Debaryomyces hansenii. In order for this enzyme hydrolysate to be suitable for arabitol production, however, the sodium benzoate must be removed. Accordingly, the maximum concentration that could remain in the hydrolysate that is not inhibitory for D. hansenii growth was determined by this MIC of Na.B test with D. hansenii.

bacterial growth = experiment: Preservatives against bacterial growth during soybean meal enzyme hydrolysis (pH profile); format: cell-based; conditions: preservative 2 g/L, 50° C., initial pH 4.8
Procedure: Systems that were considered in this section are identified on Table 16. All the systems contain 10 g of soybean meal. The enzyme hydrolysis was performed in 250 ml Erlenmeyer flasks which were agitated in orbital shaker at 250 rpm and at 50° C.
For control system, only water was added (no enzyme was added). For non-sterilized system, 10 g of soybean meal was mixed with 4 ml of enzyme broth and about 70 ml DI water. In the case of liquid autoclave system, 10 g of soybean meal was mixed with about 40 ml DI water and was autoclaved for 15 min. After autoclaving, an additional 30 ml of DI water (sterile) and 4 ml of enzyme broth were added. For vacuum autoclave systems, 10 g of soybean meal was autoclaved dry under vacuum cycle in the autoclave with no water for 15 and 45 min, respectively. After the autoclave cycle, 4 ml of enzyme broth and an additional 30 ml of DI water (sterile) was added. In case the sodium benzoate and sodium nitrite systems, 10 g of soybean meal was mixed with 2 g/L of either sodium benzoate or sodium nitrite, enzyme broth and DI water. There was no autoclaving or heating step used in these preservatives systems. The activity of the enzymes in the broth used for these experiments is shown on Table 17. The pH of all of the systems was adjusted to 4.8. Samples were taken periodically for the measurement of reducing sugars.

[2] = system: another strain of Debaryomyces hansenii; conditions: cited from earlier work
Debaryomyces hansenii = experiment: MIC study of benzoic acid for the growth of Debaryomyces hansenii; format: cell-based
Procedure: D. hansenii was inoculated first in a pre-culture medium with the following medium composition (g/L): Glucose 10, Peptone 5, Malt extract 3 and yeast extract 3. A pre-culture was performed in a 250 ml Erlenmeyer flask with 50 ml culture volume in an orbital shaker at 250 rpm and at a temperature of 30° C. After 36 hours, 5% inoculum is transferred into systems with the different benzoic acid concentrations shown in Table 11 and the medium composition shown in Table 12, each system in a 250 ml Erlenmeyer flask with a 50 ml working volume. These flasks were placed in an orbital shaker at 250 rpm and a temperature of 30° C. Samples were taken every 24 h for 3 days and the pH and cell concentrations were measured and recorded.
Cell growth was measured as optical density (OD) by measuring the absorbance of the washed cells at 610 nm with UV-vis spectrophotometer. A known amount of sample was centrifuged at 8000 rpm for 10 min and the supernatant was separated and saved for further analysis. Cell pellet was washed with DI water and centrifuge again under same conditions. Cell pellet was dispersed in water and the absorbance was measured at 610 nm.

| SMILES | level effective to inhibit bacterial growth [1] | bacterial growth judged from pH profile (bacterial growth) | MIC concentration [2] | MIC (Debaryomyces hansenii; Debaryomyces hansenii, read-out: MIC against the growth of D. hansenii) | Specific growth rate (μ), (Debaryomyces hansenii; benzoic acid 0.01 g/L) | effect on D. hansenii growth (Debaryomyces hansenii; benzoic acid 0.01 g/L) | Specific growth rate (μ), (Debaryomyces hansenii; benzoic acid 0.025 g/L) | Specific growth rate (μ), (Debaryomyces hansenii; benzoic acid 0.05 g/L) | Specific growth rate (μ), (Debaryomyces hansenii; benzoic acid 0.10 g/L) | Specific growth rate (μ), (Debaryomyces hansenii; benzoic acid 0.25 g/L) | cell growth measured as OD (Debaryomyces hansenii; benzoic acid 0.25 g/L) |
| --- | --- | --- | --- | --- | --- | --- | --- | --- | --- | --- | --- |
| O=C([O-])c1ccccc1.[Na+] [sodium benzoate, Sodium benzoate] | 2 g/L | absence of bacterial growth | – | – | – | – | – | – | – | – | – |
| O=C(O)c1ccccc1 [Benzoic acid] | – | – | 400 to 500 µg/mL | 250 µg/mL (≈ 2050 µM) | 0.089 h⁻¹ | very little inhibitory effect | 0.082 h⁻¹ | 0.079 h⁻¹ | 0.075 h⁻¹ | 0.022 h⁻¹ | almost no cell growth |
| O=NO [sodium nitrite] | – | absence of bacterial growth | – | – | – | – | – | – | – | – | – |
